The target in one assay is T1, p27-D2/Cdk2/cyclin A (Homo sapiens, UniProt P46527).
T1 construct: p27-D2 (residues 58-105 of human p27); 6xHis (N, cleaved yes); made in house; host or cells: E. coli for p27-D2
Description: 2D 1H-15N TROSY-HSQC NMR displacement of p27-D2 from Cdk2/cyclin A. The format is binding. Conditions: 3 mM SJ403, 100 μM complex, 308 K. As for the experimental part: We next used NMR spectroscopy to monitor the displacement of ^2H/^13C/^15N-labeled p27-D2 from Cdk2/cyclin A by SJ403; the complex of p27-D2 with Cdk2/cyclin A (100 μM) was prepared with a slight excess of ^2H/^13C/^15N-p27-D2 (mole ratio, 1.1:1.0 p27-D2:Cdk2/cyclin A). […] In this method, the relative population of the free state resonances (p^f; for the resonance of each p27-D2 residue) was determined as a fraction of the total intensity of both free and bound resonances for a given residue. These values were compared by forming the ratio of the two relative free state populations (p^fw/SJ403/p^fw/o SJ403); values greater than 1 indicated compound-dependent displacement. The relative populations for the bound state (p^b) were also determined for samples without (p^bw/o SJ403) and with SJ403 (p^bw/SJ403). […]
Figure 5 2D ^1H-^15N TROSY-HSQC NMR analysis of displacement of ^15N-p27-D2 from Cdk2/cyclin A by SJ403. 2D ^1H-^15N TROSY-HSQC NMR spectra of p27-D2/Cdk2/cyclin A in the absence (control) and presence of SJ403 (3 mM), respectively, were recorded. […]

The target of another assay is T2, p21-KID (Homo sapiens, UniProt P38936).
T2 construct: made in house
As to the kind of experiment: 2D 1H-15N HSQC NMR with p21-KID. Conditions: 1 mM compound, 20 μM p21-KID, 298 K. The format is binding. As for the experimental part:
Figure 8 Interaction of p21-KID with representative p27 fragment hits.
Screening and validation NMR experiments were performed at 298 K (25 °C) using either a Varian Inova 600 MHz spectrometer equipped with a triple resonance (HCN) room temperature gradient probe or a Bruker Avance 600 MHz spectrometer equipped with TCI cryogenic gradient probe and a SampleJet sample changer. Fragment molecules were initially analyzed as pools of five molecules dissolved at 10 mM each in DMSO-D6. […] For initial fragment screening experiments, one-dimensional (1D) ^1H- and WaterLOGSY[35] NMR spectra were recorded for compound pools without and with protein. […] DMSO-D6 was added to maintain a constant concentration (2% vol/vol). […] Tryptophan and tyrosine, respectively, were titrated into ^15N-p27-KID (100 μM) up to 3 mM. […] 2D ^1H-^15N TROSY-HSQC NMR experiments with ^2H/^13C/^15N-p27-D2/Cdk2/cyclin A and SJ403 have been recorded at 308 K (35 °C). 2D ^1H-^15N HSQC experiments of representative fragment hits (1 mM of SJ319843, group 1 and SJ403, group 2, respectively) with ^15N-p21-KID (20 μM) were recorded at 298 K using a Bruker Avance 600 MHz spectrometer. NMR spectra were processed using Bruker Topspin software and analyzed using computer-aided resonance assignment (CARA) software.

T2 sequence (P38936 9-84 limits assumed): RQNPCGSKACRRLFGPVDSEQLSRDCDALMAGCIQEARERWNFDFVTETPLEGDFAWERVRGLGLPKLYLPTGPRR
T1 sequence (P46527 58-105): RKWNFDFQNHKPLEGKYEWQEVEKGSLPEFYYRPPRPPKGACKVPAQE

`CCn1c(C)c(C)n2c3c(=O)n(C)c(=O)n(C)c3nc12` [SJ403]: the “displacement of p27-D2 from Cdk2/cyclin A by NMR” value at p27-D2/Cdk2/cyclin A is reported as “partial displacement”. For the same compound, the “interaction with p21-KID (1H chemical shift perturbations)” value on p21-KID was “interacted with residues near W49 and W65 of p21”.

The values above are taken from publication PMC4623604, “Discovery of Small Molecules that Inhibit the Disordered Protein, p27^Kip1” (Scientific Reports, 2015).
